Data: ChEMBL document CHEMBL1201862, “PubChem BioAssay data set” (2004)
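How tested: cells in 96-well plates exposed to compound for 48 hours at five concentrations. GI50 = concentration required for 50% inhibition of growth.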 Active and inactive are the calls of the source. No stated cut-off is given here; in the data, active = GI50 up to about 1.1 µM and inactive = higher.

Assays:
Experiment in all cases: inhibition of tumour cell growth, NCI panel, 48 h
SNB-75 = system: SNB-75
NCI-H522 = system: NCI-H522
OVCAR-8 = system: OVCAR-8
SNB-19 = system: SNB-19
BT-549 = system: BT-549
NCI-H226 = system: NCI-H226
TK-10 = system: TK-10
LOX IMVI = system: LOX IMVI
UACC-257 = system: UACC-257
T47D = system: T47D
NCI-H23 = system: NCI-H23
M14 = system: M14
HT-29 = system: HT-29
Hs-578T = system: Hs-578T
SN12C = system: SN12C
786-0 = system: 786-0
HCT-15 = system: HCT-15
HCC 2998 = system: HCC 2998
SF-295 = system: SF-295
A498 = system: A498

SMILES	GI50 (SNB-75)	GI50 (NCI-H522)	GI50 (OVCAR-8)	GI50 (SNB-19)	GI50 (BT-549)	GI50 (NCI-H226)	GI50 (TK-10)	GI50 (LOX IMVI)	GI50 (UACC-257)	GI50 (T47D)	GI50 (NCI-H23)	GI50 (M14)	GI50 (HT-29)	GI50 (Hs-578T)	GI50 (SN12C)	GI50 (786-0)	GI50 (HCT-15) [µM]	GI50 (HCC 2998)	GI50 (SF-295)	GI50 (A498)
O=[N+]([O-])c1ccc(-n2nc3ccc4c(no[n+]4[O-])c3n2)cc1	61.7 µM (inactive)	> 100 µM (inactive)	> 100 µM (inactive)	> 100 µM (inactive)	> 100 µM (inactive)	> 100 µM (inactive)	> 100 µM (inactive)	> 100 µM (inactive)	> 100 µM (inactive)	> 100 µM (inactive)	> 100 µM (inactive)	> 100 µM (inactive)	> 100 µM (inactive)	> 100 µM (inactive)	> 100 µM (inactive)	> 100 µM (inactive)	> 100	> 100 µM (inactive)	> 100 µM (inactive)	
CCOC(=O)c1c(C)[n+]([O-])c2cc(Cl)c(Cl)cc2[n+]1[O-]			19.7 µM (inactive)	36.8 µM (inactive)	19.8 µM (inactive)	12 µM (inactive)	18.1 µM (inactive)	15.3 µM (inactive)	16.9 µM (inactive)	16 µM (inactive)	10.7 µM (inactive)	23.1 µM (inactive)	33.5 µM (inactive)	24.1 µM (inactive)	20.4 µM (inactive)	28.3 µM (inactive)	14.3	13.7 µM (inactive)	29.4 µM (inactive)	20.3 µM (inactive)
Oc1c(Br)cc(/C=C/c2ccnc(/C=C/c3cc(Br)c(O)c(Br)c3)c2)cc1Br	19.1 µM (inactive)		26.8 µM (inactive)	35.8 µM (inactive)	33.4 µM (inactive)		27.2 µM (inactive)	29.2 µM (inactive)	26.2 µM (inactive)	16.7 µM (inactive)		25.1 µM (inactive)	21.7 µM (inactive)	54.2 µM (inactive)	51.3 µM (inactive)	18.2 µM (inactive)	23.6	25.8 µM (inactive)	27.5 µM (inactive)	18.9 µM (inactive)
Cc1n[nH]c(=O)n1/N=C/c1ccc(F)cc1	65.2 µM (inactive)	> 100 µM (inactive)	> 100 µM (inactive)	> 100 µM (inactive)	> 100 µM (inactive)				> 100 µM (inactive)	> 100 µM (inactive)	> 100 µM (inactive)	> 100 µM (inactive)			> 100 µM (inactive)	> 100 µM (inactive)	> 100	> 100 µM (inactive)	> 100 µM (inactive)	90.8 µM (inactive)
CC1CC[C@@H](C(C)C)[C@H](Oc2nnc(C3OC(CO)C(O)C3O)o2)C1 (some centres undefined)	> 100 µM (inactive)		> 100 µM (inactive)	> 100 µM (inactive)	> 100 µM (inactive)	> 100 µM (inactive)	> 100 µM (inactive)	> 100 µM (inactive)	> 100 µM (inactive)	> 100 µM (inactive)	> 100 µM (inactive)		> 100 µM (inactive)		> 100 µM (inactive)	> 100 µM (inactive)	> 100	> 100 µM (inactive)	> 100 µM (inactive)	> 100 µM (inactive)
COC(=O)C(=O)c1cc2ccccc2n1S(=O)(=O)c1ccccc1	84.5 µM (inactive)	> 100 µM (inactive)	> 100 µM (inactive)	> 100 µM (inactive)	> 100 µM (inactive)		> 100 µM (inactive)	> 100 µM (inactive)	> 100 µM (inactive)	> 100 µM (inactive)	> 100 µM (inactive)	> 100 µM (inactive)	> 100 µM (inactive)		> 100 µM (inactive)	> 100 µM (inactive)	> 100	> 100 µM (inactive)	> 100 µM (inactive)	> 100 µM (inactive)
COC(=O)c1sc2ncc3c(c2c1N)CCCCCC3	97.3 µM (inactive)	> 100 µM (inactive)	> 100 µM (inactive)	> 100 µM (inactive)	> 100 µM (inactive)	> 100 µM (inactive)	> 100 µM (inactive)	> 100 µM (inactive)	> 100 µM (inactive)	> 100 µM (inactive)	> 100 µM (inactive)	> 100 µM (inactive)	> 100 µM (inactive)		> 100 µM (inactive)	> 100 µM (inactive)	> 100	> 100 µM (inactive)	> 100 µM (inactive)	> 100 µM (inactive)
O=C(/C=C1\Nc2ccccc2N\C1=C\C(=O)c1ccc(Cl)cc1)c1ccccc1	21.3 µM (inactive)	> 100 µM (inactive)	23.9 µM (inactive)	94.4 µM (inactive)	34.5 µM (inactive)	> 100 µM (inactive)	> 100 µM (inactive)	33.3 µM (inactive)	53.8 µM (inactive)	16 µM (inactive)	75 µM (inactive)	18.3 µM (inactive)			47.2 µM (inactive)	26 µM (inactive)	52.7	74.8 µM (inactive)	40.3 µM (inactive)	73.6 µM (inactive)
CSC1=N/C(=C\c2ccc(C)cc2)C(=O)N1	47.4 µM (inactive)	34.1 µM (inactive)	95.3 µM (inactive)	58.7 µM (inactive)	37.8 µM (inactive)	> 100 µM (inactive)	> 100 µM (inactive)	57.3 µM (inactive)	> 100 µM (inactive)	25.2 µM (inactive)	51.8 µM (inactive)	> 100 µM (inactive)	> 100 µM (inactive)	32.6 µM (inactive)	> 100 µM (inactive)	45.8 µM (inactive)	> 100	66.2 µM (inactive)	65 µM (inactive)	
Cc1cnc(-c2c[nH]c3ccccc23)nc1-c1c[nH]c2ccccc12	2.39 µM (inactive)		6.08 µM (inactive)	7.89 µM (inactive)	19 µM (inactive)		5.31 µM (inactive)	3.62 µM (inactive)	6.82 µM (inactive)	1.75 µM (inactive)		4.32 µM (inactive)	4.18 µM (inactive)	17.9 µM (inactive)	1.68 µM (inactive)	3.58 µM (inactive)	5.81	4.67 µM (inactive)	3.29 µM (inactive)	2.6 µM (inactive)
COc1ccc(Oc2nc3ccc(C(F)(F)F)cc3nc2-c2ccccc2)cc1		> 100 µM (inactive)		> 100 µM (inactive)	0.361 µM (active)	> 100 µM (inactive)	> 100 µM (inactive)	> 100 µM (inactive)	> 100 µM (inactive)		1.13 µM (inactive)		54.3 µM (inactive)	> 100 µM (inactive)	> 100 µM (inactive)	> 100 µM (inactive)	> 100	25.3 µM (inactive)	> 100 µM (inactive)	> 100 µM (inactive)
O=c1n(-c2ccccc2)c(=O)n2n1C1Cc3ccccc3C12 (centres undefined)	69.5 µM (inactive)		> 100 µM (inactive)	> 100 µM (inactive)	> 100 µM (inactive)	> 100 µM (inactive)	> 100 µM (inactive)	> 100 µM (inactive)	> 100 µM (inactive)	> 100 µM (inactive)	> 100 µM (inactive)	> 100 µM (inactive)	> 100 µM (inactive)	15 µM (inactive)	> 100 µM (inactive)	> 100 µM (inactive)	> 100		> 100 µM (inactive)	> 100 µM (inactive)
N#Cc1c(-c2cccc(Br)c2)cc(-c2ccc(Cl)cc2)nc1N		14.1 µM (inactive)	32 µM (inactive)	18.7 µM (inactive)	33 µM (inactive)	17.5 µM (inactive)	18.7 µM (inactive)	15.8 µM (inactive)	17.3 µM (inactive)	29 µM (inactive)	25 µM (inactive)	20.7 µM (inactive)	18.7 µM (inactive)	19.1 µM (inactive)	19.1 µM (inactive)	20.3 µM (inactive)	14.1	17.3 µM (inactive)	16.6 µM (inactive)	
CCN(CC)CCNC(=O)c1cc2cc(NC(=O)c3cc4cc([N+](=O)[O-])ccc4[nH]3)ccc2[nH]1	4.89 µM (inactive)	3.09 µM (inactive)	2.99 µM (inactive)	49.8 µM (inactive)	> 60.8 µM (inactive)	56.2 µM (inactive)	14.2 µM (inactive)	3.86 µM (inactive)	29.4 µM (inactive)	18.4 µM (inactive)	8.49 µM (inactive)	57.8 µM (inactive)	2.93 µM (inactive)		> 65.2 µM (inactive)	2.25 µM (inactive)	> 100	11.2 µM (inactive)	27.6 µM (inactive)	27 µM (inactive)
CN(/N=C/c1ccc(C(=O)O)cc1)C1=NCCCCN1	98.9 µM (inactive)	> 100 µM (inactive)	> 100 µM (inactive)	> 100 µM (inactive)	> 100 µM (inactive)	> 100 µM (inactive)		> 100 µM (inactive)	> 100 µM (inactive)	> 100 µM (inactive)	> 100 µM (inactive)	> 100 µM (inactive)	> 100 µM (inactive)		> 100 µM (inactive)	> 100 µM (inactive)	> 100	> 100 µM (inactive)	> 100 µM (inactive)	> 100 µM (inactive)
Fc1ccc(Oc2nc3ccc(C(F)(F)F)cc3nc2-c2ccccc2)cc1	27.9 µM (inactive)	> 100 µM (inactive)	> 100 µM (inactive)	87.9 µM (inactive)	> 100 µM (inactive)		51.2 µM (inactive)	> 100 µM (inactive)	47.2 µM (inactive)	99.3 µM (inactive)	77.3 µM (inactive)	50.4 µM (inactive)	32.1 µM (inactive)	28.2 µM (inactive)	> 100 µM (inactive)	61.7 µM (inactive)	> 100	14.5 µM (inactive)	37.7 µM (inactive)	
